Data taken from patent publication US20150177202A1, “ODOR THRESHOLD TEST” (University of Tennessee Research Foundation, priority 2013, published 2015).
Values joined by “and” are separate entries in the source; they are usually repeats but may differ in a detail not shown here. Equal values may be shown once.

Tests used:
trigeminal nerve = conditions: cited from earlier work
olfactory system = test: WUTC Odor Threshold Test (yes-no detection of odorant dilutions in water, signal detection analysis); format: in vivo, human; set-up: Estimated odorant threshold, Mean / Mean estimated threshold / Estimated odorant threshold, Minimum: unit not given here; conditions: for Threshold: combined trials of all 33 subjects, logistic regression, p=0.5; for Estimated threshold compared with literature value: in vivo; for Estimated odorant threshold, Maximum: maximum of individual participant thresholds, in ppm; for Estimated odorant threshold, Mean: mean of individual participant thresholds; for Estimated odorant threshold, Minimum: minimum of individual participant thresholds
Excerpt: The present study involved the creation and study of a new test of olfactory ability, deemed the Wheeler University of Tennessee, Chattanooga (WUTC) Odor Threshold Test. This test was developed building upon the methodology behind signal detection theory as it allowed for multiple measures of olfactory ability to be calculated from a single test. These measures are sensitivity, response-bias, and threshold. Unlike currently available threshold tests, the WUTC Odor Threshold Test utilizes a randomized, multiple odor administration along with the presentation of blank concentrations.
A total of thirty three participants (N=33), collected from the UTC campus, were administered the WUTC threshold test.
To make the test, odorant molecules were first dissolved in a purified H2O solvent following their individual levels of solubility to create standard solutions. These standards were the highest concentration for each odorant and the base from which all successive dilutions were made. Liquid odorants ethanol, pinene, and isoamyl acetate were diluted by volume whereas para-cresol and vanillin were diluted by mass. Each standard was rounded to the nearest μL. A total of nine concentrations were made from each standard solution and diluted at a ratio of 1:2. The highest concentration for each odor as well as concentration ranges were chosen based on literature threshold values and a small, preliminary testing period. Solutions (10 mL) of each odorant were diluted and contained in sterilized and dried glass vials with black, screw-top lids (see FIG. 12).
Blanks were made using 10 mL of the same purified H2O used as a solvent for the other odorants. The final test contained 45 vials with odorant concentrations and nine blanks for a total of 54 vials. Tests were remade after either one month or ten administrations had been reached to avoid any amount of loss of odor strength that could result from extended shelf time or exposure to air during administrations. Before reproducing the test, vials underwent sterilization and drying procedures.
Each subject was instructed to complete the provided demographic form (see below). […] Each participant was then seated in a cushioned, high backed chair facing away from a table where each testing vial was placed. In a brief tutorial to the test, subjects were instructed that they would be presented with a number of vials, some containing odors and some not, one at a time. Subjects were then told that they would only be required to smell the contents of the vial and verbally give a “yes” or “no” answer as to whether they detected anything. […] Once the subject felt comfortable with the instructions presented in this tutorial, the actual test was started.
Following a randomly generated number sequence for each subject, a seated test administrator would select the correspondingly numbered test vial for each trial, place it in tongs, and hand it to a second administrator that, like the participant, was facing away from the administration table. […] The “yes” or “no” response given by the subject was recorded by the first administrator and the vial and tongs were returned to him/her by the second administrator. This procedure was repeated for each of the odorant tubes in the test with each tube presented to the participant twice.

[1] = test system: premature newborn infants; conditions: olfactory stimulation; cited from earlier work
[2] = concentration 1 (lowest), combined participant trials
[3] = concentration 2, combined participant trials
[4] = concentration 3, combined participant trials
[5] = concentration 4, combined participant trials
[6] = concentration 5, combined participant trials
[7] = concentration 6, combined participant trials
[8] = concentration 7, combined participant trials
[9] = concentration 8, combined participant trials
[10] = concentration 9 (highest), combined participant trials

In the case of `CCO` [Ethanol, ethanol], the “Concentration causing irritation of the trigeminal nerve” value (trigeminal nerve) is listed as “over 1000 ppm”, the Mean estimated threshold (olfactory system; African Americans) is listed as 112.069 and the Mean estimated threshold (olfactory system; Caucasians) is listed as 344.968. For the same molecule, the Threshold (olfactory system) was 263.750 ppm, the “Mean A′” value (olfactory system; [2]) was 0.757 and the “Mean d′” value (olfactory system; [2]) was 0.898. The “Mean A′” value (olfactory system; [3]) was 0.716, the “Mean d′” value (olfactory system; [3]) was 0.704 and the “Mean A′” value (olfactory system; [4]) was 0.514. The “Mean d′” value (olfactory system; [4]) was 0.035, the “Mean A′” value (olfactory system; [5]) was 0.741 and the “Mean d′” value (olfactory system; [5]) was 0.819. The “Mean A′” value (olfactory system; [6]) was 0.561, the “Mean d′” value (olfactory system; [6]) was 0.16 and the “Mean A′” value (olfactory system; [7]) was 0.766. For the same molecule, the “Mean d′” value (olfactory system; [7]) was 0.941, the “Mean A′” value (olfactory system; [8]) was 0.668 and the “Mean d′” value (olfactory system; [8]) was 0.513. The “Mean A′” value (olfactory system; [9]) was 0.789, the “Mean d′” value (olfactory system; [9]) was 1.066 and the “Mean A′” value (olfactory system; [10]) was 0.804. The “Mean d′” value (olfactory system; [10]) was 1.154, the “Estimated threshold compared with literature value” (olfactory system) was “at or within literature values” and the “Estimated odorant threshold, Maximum” value (olfactory system) was 942.747. The “Estimated odorant threshold, Mean” value (olfactory system) was 251.808, the “Estimated odorant threshold, Minimum” value (olfactory system) was 1.057 and the Mean estimated threshold (olfactory system; participants with headaches (N=8)) was 396.631. For the same molecule, the Mean estimated threshold (olfactory system; participants without headaches (N=12)) was 155.260.
For `CC(=O)OCCC(C)C` [Isoamyl Acetate, isoamyl acetate], the Threshold (olfactory system) was 38.274 ppm, the “Mean A′” value (olfactory system; [2]) was 0.407 and the “Mean d′” value (olfactory system; [2]) was −0.249. The “Mean A′” value (olfactory system; [3]) was 0.424, the “Mean d′” value (olfactory system; [3]) was −0.198 and the “Mean A′” value (olfactory system; [4]) was 0.424. For the same molecule, the “Mean d′” value (olfactory system; [4]) was −0.198, the “Mean A′” value (olfactory system; [5]) was 0.478 and the “Mean d′” value (olfactory system; [5]) was −0.053. For the same molecule, the “Mean A′” value (olfactory system; [6]) was 0.716, the “Mean d′” value (olfactory system; [6]) was 0.704 and the “Mean A′” value (olfactory system; [7]) was 0.716. The “Mean d′” value (olfactory system; [7]) was 0.704, the “Mean A′” value (olfactory system; [8]) was 0.796 and the “Mean d′” value (olfactory system; [8]) was 1.11. For the same molecule, the “Mean A′” value (olfactory system; [9]) was 0.826, the “Mean d′” value (olfactory system; [9]) was 1.299 and the “Mean A′” value (olfactory system; [10]) was 0.781. The “Mean d′” value (olfactory system; [10]) was 1.024, the “Estimated threshold compared with literature value” (olfactory system) was “below its literature value” and the “Estimated odorant threshold, Maximum” value (olfactory system) was 65.102. For the same molecule, the “Estimated odorant threshold, Mean” value (olfactory system) was 13.935 and the “Estimated odorant threshold, Minimum” value (olfactory system) was 0.513.
For `CC1=CCC2CC1C2(C)C` [Pinene, L-α-pinene], the “Activity as an irritant” value (trigeminal nerve) is listed as “nearly inactive as an irritant”, the Threshold (olfactory system) is listed as 275.598 ppm and the “Mean A′” value (olfactory system; [2]) is listed as 0.407. For the same molecule, the “Mean d′” value (olfactory system; [2]) was −0.249, the “Mean A′” value (olfactory system; [3]) was 0.757 and the “Mean d′” value (olfactory system; [3]) was 0.898. For the same molecule, the “Mean A′” value (olfactory system; [4]) was 0.561, the “Mean d′” value (olfactory system; [4]) was 0.16 and the “Mean A′” value (olfactory system; [5]) was 0.514. For the same molecule, the “Mean d′” value (olfactory system; [5]) was 0.035, the “Mean A′” value (olfactory system; [6]) was 0.668 and the “Mean d′” value (olfactory system; [6]) was 0.513. The “Mean A′” value (olfactory system; [7]) was 0.724, the “Mean d′” value (olfactory system; [7]) was 0.742 and the “Mean A′” value (olfactory system; [8]) was 0.847. For the same molecule, the “Mean d′” value (olfactory system; [8]) was 1.458, the “Mean A′” value (olfactory system; [9]) was 0.901 and the “Mean d′” value (olfactory system; [9]) was 2.097. For the same molecule, the “Mean A′” value (olfactory system; [10]) was 0.875, the “Mean d′” value (olfactory system; [10]) was 1.72 and the “Estimated threshold compared with literature value” (olfactory system) was “greater than values found”. For the same molecule, the “Estimated odorant threshold, Maximum” value (olfactory system) was 795.338, the “Estimated odorant threshold, Mean” value (olfactory system) was 251.225 and the “Estimated odorant threshold, Minimum” value (olfactory system) was 0.778.
In the case of `COc1cc(C=O)ccc1O` [Vanillin, vanillin], the Effect on apnea [1] is listed as “significantly prevent apnea”, the Threshold (olfactory system) is listed as 112.426 ppm and the “Mean A′” value (olfactory system; [2]) is listed as 0.39. The “Mean d′” value (olfactory system; [2]) was −0.302, the “Mean A′” value (olfactory system; [3]) was 0.478 and the “Mean d′” value (olfactory system; [3]) was −0.053. The “Mean A′” value (olfactory system; [4]) was 0.531, the “Mean d′” value (olfactory system; [4]) was 0.077 and the “Mean A′” value (olfactory system; [5]) was 0.625. The “Mean d′” value (olfactory system; [5]) was 0.359, the “Mean A′” value (olfactory system; [6]) was 0.561 and the “Mean d′” value (olfactory system; [6]) was 0.16. The “Mean A′” value (olfactory system; [7]) was 0.678, the “Mean d′” value (olfactory system; [7]) was 0.55 and the “Mean A′” value (olfactory system; [8]) was 0.781. The “Mean d′” value (olfactory system; [8]) was 1.024, the “Mean A′” value (olfactory system; [9]) was 0.796 and the “Mean d′” value (olfactory system; [9]) was 1.11. The “Mean A′” value (olfactory system; [10]) was 0.888, the “Mean d′” value (olfactory system; [10]) was 1.885 and the “Estimated threshold compared with literature value” (olfactory system) was “greater than values found”. For the same molecule, the “Estimated odorant threshold, Maximum” value (olfactory system) was 339.932, the “Estimated odorant threshold, Mean” value (olfactory system) was 119.978 and 19.978 and the “Estimated odorant threshold, Minimum” value (olfactory system) was 2.619. It also gave a Mean estimated threshold (olfactory system; subjects with asthma (N=8)) of 207.137 and a Mean estimated threshold (olfactory system; subjects without asthma (N=18)) of 86.084.
In the case of `CCCCO` [n-butanol, reference compound], the “Concentration causing irritation of the trigeminal nerve” value (trigeminal nerve) is listed as “approximately 200 ppm”.
With `Cc1ccc(O)cc1` [para-cresol] the Threshold (olfactory system) was 1.058 ppm, the “Mean A′” value (olfactory system; [2]) was 0.356 and the “Mean d′” value (olfactory system; [2]) was −0.416. The “Mean A′” value (olfactory system; [3]) was 0.561, the “Mean d′” value (olfactory system; [3]) was 0.16 and the “Mean A′” value (olfactory system; [4]) was 0.614. For the same molecule, the “Mean d′” value (olfactory system; [4]) was 0.32, the “Mean A′” value (olfactory system; [5]) was 0.614 and the “Mean d′” value (olfactory system; [5]) was 0.32. The “Mean A′” value (olfactory system; [6]) was 0.313, the “Mean d′” value (olfactory system; [6]) was 0.475 and the “Mean A′” value (olfactory system; [7]) was 0.804. The “Mean d′” value (olfactory system; [7]) was 1.154, the “Mean A′” value (olfactory system; [8]) was 0.847 and the “Mean d′” value (olfactory system; [8]) was 1.458. The “Mean A′” value (olfactory system; [9]) was 0.84, the “Mean d′” value (olfactory system; [9]) was 1.403 and the “Mean A′” value (olfactory system; [10]) was 0.908. The “Mean d′” value (olfactory system; [10]) was 2.246, the “Estimated threshold compared with literature value” (olfactory system) was “at or within literature values” and the “Estimated odorant threshold, Maximum” value (olfactory system) was 5.28. The “Estimated odorant threshold, Mean” value (olfactory system) was 1.340 and the “Estimated odorant threshold, Minimum” value (olfactory system) was 0.005.
